Measured values: patent publication US9006191B2, “Silencing of polo-like kinase expression using interfering RNA” (Protiva Biotherapeutics, Inc., priority 2007, dated 2015)
Where “and” joins values, the source holds several entries; their conditions need not be identical. Equal values may be shown once. Strand notation (5' to 3'): a small letter for the sugar, then the base; units joined by * are phosphorothioate-linked, units joined directly phosphodiester-linked; [ ] holds rarer units or linkages, { } end groups; capitals alone tell only the bases. d = 2'-deoxy (DNA); r = 2'-OH (RNA)

Experiments:
hepatocellular carcinoma = conditions: patients with advanced disease, phase III; cited from earlier work
IFN-α, IFIT1 mRNA = test: In vivo immune stimulation assay in CD1 ICR mice (plasma IFN-α, IFIT1 mRNA); design: species or system mouse; conditions: 1:57 PEG-cDMA SNALP, 3 mg/kg IV, 4 h
Procedure: In vivo immune stimulation assays. Animal studies were performed to test for the immunostimulatory activity of SNALP containing 2′OMe-modified PLK1424 siRNAs. Six-week-old female CD1 ICR mice were used in this study. […] The tolerability of the treatment regime was monitored by animal appearance and behavior.

[1] = tested on: anti-PEG-lipid IgG and IgM antibodies; test: In vivo PEG-lipid antibody induction assay; design: species or system mouse; conditions: CD1 ICR mice, 1:57 SNALP IV at Days 0, 7, 14; plasma Days 7, 14, 21
Procedure: In vivo PEG-lipid antibody induction assays. Animal studies were performed to test for the induction of an antibody response to 2′OMe-modified PLK1424 siRNAs that were encapsulated in a 1:57 SNALP formulation containing the lipid conjugate PEG-cDMA. Six-week-old female CD1 ICR mice were used in this study. […] Mice were then sacrificed on Day 21. The tolerability of the treatment regime was monitored by animal appearance, behavior, and body weight. Anti-PEG-lipid IgG and IgM antibodies in plasma at Days 7, 14, and 21 were measured by ELISA.

Hep3B liver tumors = test: Intrahepatic Hep3B tumor model (survival, body weight, tumor burden); assay type: in vivo; conditions: Hep3B-nu/nu mouse model, 2 mg/kg twice weekly d11-d28
Procedure: SNALP containing PLK-1 siRNA (“1:57” SNALP formulation: 1.4% PEG-cDMA; 57.1% DLinDMA; 7.1% DPPC; and 34.3% cholesterol) were tested for their effects on the survival of […] mice bearing Hep3B liver tumors.
Intrahepatic tumor models. Liver tumors were established in mice by direct intrahepatic injection of Hep3B or Neuro2a tumor cells (45). Female scid/beige mice (Charles River Laboratories) and male A/J mice (Jackson Laboratories) were used as hosts for the Hep3B and Neuro2a tumors, respectively. Animals received Anafen by SC injection immediately prior to surgery. Individual mice were anaesthetized by isoflourane gas inhalation and eye lube applied to prevent excessive eye drying. While maintained under gas anaesthesia, a single 1.5 cm incision across the midline was made below the sternum and the left lateral hepatic lobe exteriorized. 1×10^6 Hep3B cells or 1×10^5 Neuro2a cells suspended in 25 μL PBS were injected slowly into the lobe at a shallow angle using a Hamilton syringe and 30G needle. A swab was then applied to the puncture wound to stop any bleeding prior to suturing. Mice were allowed to recover from anaesthesia in a sterile cage and monitored closely for 2-4 h before being returned to conventional housing.
Eight to 11 days after tumor implantation, mice were randomized into treatment groups. siRNA SNALP formulations or PBS vehicle control were administered by standard intravenous injection via the lateral tail vein, calculated on a mg siRNA/kg basis according to individual animal weights (10 mL/kg injection volume). Body weights were then monitored throughout the duration of the study as an indicator of developing tumor burden and treatment tolerability. For efficacy studies, defined humane endpoints were determined as a surrogate for survival. Assessments were made by qualified veterinary technicians based on a combination of clinical signs, weight loss, and abdominal distension to define the day of euthanization due to tumor burden.
Measurement of human PLK-1 and GAPDH mRNA in tumor tissues. Tumors were harvested directly into RNALater and stored at 4° C. until processing. 100 mg tumor tissue was homogenized in Tissue and Lysis Solution (EpiCentre Biotechnologies) containing […] proteinase K (EpiCentre) in a Fastprep tissue homogenizer followed by incubation in a 65° C. waterbath for 15 min and centrifuged to clarify lysates. mRNA analysis in FIG. 33B was performed on purified RNA isolated according the 5′-RACE-PCR protocol. Human PLK-1 and GAPDH mRNA were measured in tumor lystes by the QuantiGene bDNA assay (Panomics) as per the manufacturer's instructions (Quantigene 1.0 Manual). […] Data were expressed as mean PLK-1:GAPDH ratio+/−SD of individual animals. Tumor burden was assessed by homogenizing the complete liver from tumor bearing mice and measuring the total hGAPDH signal (RLU's) within the liver. Values were expressed as hGAPDH RLU/mg total liver.

IFIT1 mRNA, serum IFNα [2] = conditions: mouse, in vivo, iv
Procedure: (§1) Balb/c mice (n=4 per group) were administered 2.5 mg/kg siRNA or lipid vehicle; serum IFNα (pg/mL) and IFIT1 mRNA (relative to GAPDH) from whole liver lysates were assessed after 4, 8, and 16 h by ELISA and bDNA assay, respectively. […] (b) Serum IFNα and (c) liver IFIT1 mRNA were assessed 4 h after administration (mean+SD, n=4).
(§2) SNALP-formulated Luc (unmodified) and the 2′OMe-modified Luc-U/U, PLK1424-2/A, PLK773-1/B, or KSP2263-U/U siRNA were administered at 2 mg/kg i.v. to Balb/C mice. (A) IFIT1 relative to GAPDH mRNA in liver and spleen was assessed at 4 h by bDNA analysis. […] Serum IFNα was assessed at 6 h by ELISA. […] Values represent mean+SD (n=4).
(§3) IFIT1 mRNA and serum cytokines were assessed 4-6 h after SNALP administration based on the approximate time of peak response for these markers. In these studies, SNALP-formulated native Luc siRNA (Table 6) was used as a positive control for immune stimulation.
(§4) In vivo immune stimulation assays. […] 6-8 week old Balb/C mice were obtained from Harlan and subject to a two week acclimation period prior to use. Mice were administered SNALP formulated siRNA (2 mg/kg) in PBS via standard intravenous injection in the lateral tail vein. Blood was collected by cardiac puncture and processed as plasma for cytokine analysis. Liver and spleen were collected into RNALater (Sigma Co.) for IFIT1 mRNA analysis.
(§5) Measurement of IFIT1 mRNA in mouse tissues. Murine liver and spleen were processed for bDNA assay to quantitate IFIT1 mRNA as described above. The IFIT1 probe set was specific to mouse IFIT1 mRNA (positions 4-499 of NM—008331) and the GAPDH probe set was specific to mouse GAPDH mRNA (positions 9-319 of NM—008084). Data is shown as the ratio of IFIT1 relative light units (RLU) to GAPDH RLU.
(§6) Cytokine ELISA. All cytokines were quantified using sandwich ELISA kits. These were mouse interferon-α (PBL Biomedical; Piscataway, N.J.) and human and mouse IL-6 (BD Biosciences; San Diego, Calif.).

IFIT1 mRNA, serum IFNα [3] = test: In vivo immune stimulation assay in Balb/c mice (IFIT1 mRNA, serum IFNα); conditions: 2 mg/kg IV, 4 h
Procedure: as §1, §2, §3, §4, §5, §6

[4] = SNALP particle size and polydispersity; assay type: physicochemical
KSP mRNA = KSP mRNA silencing in Neuro2a cells (bDNA assay); assay type: cell-based, mouse; conditions: 24 h after transfection
From the text: Activity of the 2′OMe-modified panels of (A) PLK1424 and (B) PLK773 siRNA. Unmodified PLK1424 or PLK773 siRNA (black) were compared in the Hep3B cell viability assay to the 2′OMe modified duplexes 1/A, 2/A, 1/B, 2/B, 1/C, or 2/C that comprise the respective 2′OMe sense/antisense oligonucleotides (see, Table 6). Data are mean viability of triplicate cultures relative to PBS treated cells and representative of 2 independent experiments using SNALP-formulated siRNA. (C) Cytokine induction by unmodified and 2′OMe PLK-1 siRNA in vitro. Murine Flt3L DC were treated with 5 μg/mL unmodified PLK773 or PLK1424 siRNA duplexes (773, 1424) and their constituent sense (S) or antisense (AS) oligonucleotides or the 2′OMe siRNA duplexes PLK773-1/B and PLK1424-2/A formulated in SNALP. IFNα and IL-6 were assayed in culture supernates at 24 h. Values are mean+SD of 3 separate experiments conducted in triplicate cultures. (D,E) Activity of SNALP-formulated KSP2263 siRNA in murine Neuro2a cells. (D) Correlation between KSP mRNA silencing and cell viability relative to PBS control. KSP mRNA was determined by bDNA analysis at 24 h. Duplicate plates were assessed for cell viability at 72 h. (E) Activity screen comparing the unmodified KSP2263 siRNA to the panel of 2′OMe-modified duplexes (see, Table 6) in the Neuro2a cell viability assay. Data represents mean+/−SD triplicate cultures, relative to PBS treatment. […]

HeLa cells = test: Monoastral spindle formation in HeLa cells; assay type: cell-based, human; conditions: 20 nM, 16 h
Procedure: HeLa cells were treated for 16 h with (A) Luc or (B) KSP2263 siRNA at 20 nM then immunostained for α-tubulin (FITC). DNA was stained with DAPI and flourescent images captured and overlayed.

Neuro2A cells = test: Neuro2A cell viability assay (CellTiter-Blue); assay type: cell-based; conditions: mouse Neuro2A cells, SNALP-formulated siRNA, viability at 72 h relative to PBS
Procedure: Various PLK-1 siRNAs were formulated as SNALP (“2:40” SNALP formulation: 2% PEG-cDMA; 40% DLinDMA; 10% DSPC; and 48% cholesterol) and evaluated for their inhibitory effects on cell growth in vitro. HT29 (human colon adenocarcinoma) or Neuro2A (mouse neuroblastoma) cells were treated with various PLK-1 SNALP at a range of siRNA concentrations and their effect on cell viability was evaluated. Viability of cell cultures is expressed as % viability relative to PBS treated controls.
Additional PLK-1 siRNA molecules were formulated as SNALP (“2:40” SNALP formulation: 2% PEG-cDMA; 40% DLinDMA; 10% DSPC; and 48% cholesterol) and evaluated for their inhibitory effects on cell growth in vitro. HT29 or Neuro2A cells were plated in triplicate at 5000 cells/well and 2500 cells/well, respectively. PLK-1 SNALP dosages were as follows: 25 nM; 5 nM; and 1 nM. Cell viability analysis was performed at 72 hours following transfection. SNALP containing a non-targeting (GFP) siRNA were used as a negative control.
Additional PLK-1 siRNA molecules were formulated as SNALP (“2:40” SNALP formulation: 2% PEG-cDMA; 40% DLinDMA; 10% DSPC; and 48% cholesterol) and evaluated for their inhibitory effects on cell growth in vitro. HT29 or Neuro2A cells were plated in triplicate at 5000 cells/well and 2500 cells/well, respectively. PLK-1 SNALP dosages were as follows: 30 nM; 10 nM; and 3.3 nM. Cell viability analysis was performed at 72 hours following transfection. SNALP containing a non-targeting (GFP) siRNA were used as a negative control.

**Q.** With CNC(=O)c1cc(Oc2ccc(NC(=O)Nc3ccc(Cl)c(C(F)(F)F)c3)cc2)ccn1 [Sorafenib] as the compound, how does the survival time (hepatocellular carcinoma) read?
**A.** 10.7 mo

**Q.** Which results are given for “PLK1424 2/3: 2′OMe-modified PLK1424 siRNA, SEQ ID NO:400/215 (chain 1 AGANCACCCNCCUNAAANANU; chain 2 UAUUUAANGAGGGUGANCUUU; 2'-OMe modifications, chemistry not fully specified)”?
**A.** IFIT1 induction (QG analysis) (IFN-α, IFIT1 mRNA): no significant IFIT1 induction above that of empty SNALP; IgG / IgM antibody response against PEG-lipid (PEG-cDMA) [1]: almost no detectable antibody responses against the PEG-lipid

**Q.** With “PLK1424 2/4: 2′OMe-modified PLK1424 siRNA, SEQ ID NO:400/401 (chain 1 AGANCACCCNCCUNAAANANU; chain 2 UAUUUAANGAGGGUGANCUUC; 2'-OMe modifications, chemistry not fully specified)” as the compound, how does the “IFIT1 induction (QG analysis)” value (IFN-α, IFIT1 mRNA) read?
**A.** no significant IFIT1 induction above that of empty SNALP

**Q.** And the “IgG / IgM antibody response against PEG-lipid (PEG-cDMA)” value [1]?
**A.** almost no detectable antibody responses against the PEG-lipid

**Q.** Which “median survival, Study (A)” value (Hep3B liver tumors) does the source give for “Luc: unmodified siRNA targeting luciferase, SEQ ID NO:231/232 (chain 1 GAUUAUGUCCGGUUAUGUAUU; chain 2 UACAUAACCGGACAUAAUCUU; unmodified RNA)” here?
**A.** 67 days

**Q.** What about the “median survival, study (B)” value (Hep3B liver tumors) of the same compound?
**A.** undefined

**Q.** What about the “serum IFNα / serum cytokine response” value (IFIT1 mRNA, serum IFNα [2]) of the same compound?
**A.** detection of systemic IFNα

**Q.** What about the “increase in IFIT1 mRNA in the liver compared to PBS” value (IFIT1 mRNA, serum IFNα [3]) of the same compound?
**A.** 83 fold

**Q.** And the “increase in IFIT1 mRNA in the spleen compared to PBS” value (IFIT1 mRNA, serum IFNα [3])?
**A.** 247 fold

**Q.** What about the “mean SNALP particle size” value [4] of the same compound?
**A.** 90 nm and 82 nm and 72 nm

**Q.** With “KSP2263: published siRNA targeting KSP, SEQ ID NO:225/226 (chain 1 rCrUrGrArArGrArCrCrUrGrArArGrArCrArArUdTdT; chain 2 rArUrUrGrUrCrUrUrCrArGrGrUrCrUrUrCrArGdTdT)” as the compound, how does the “KSP mRNA” value (KSP mRNA) read?
**A.** dose-dependent reductions in KSP mRNA

**Q.** And the monoastral spindle phenotype (HeLa cells)?
**A.** monoastral spindles

**Q.** What about the “cell viability / inhibition of cell growth” value (Neuro2A cells) of the same compound?
**A.** loss of cell viability at 72 h

**Q.** What about the “mean SNALP particle size” value [4] of the same compound?
**A.** 88 nm

**Q.** What about the polydispersity [4] of the same compound?
**A.** 0.07

**Q.** With “PLK1424 2/6: 2′OMe-modified PLK1424 siRNA, SEQ ID NO:400/403 (chain 1 AGANCACCCNCCUNAAANANU; chain 2 UAUUUAANGAGGGUNANCUNC; 2'-OMe modifications, chemistry not fully specified)” as the compound, how does the “IFIT1 induction (QG analysis)” value (IFN-α, IFIT1 mRNA) read?
**A.** no significant IFIT1 induction above that of empty SNALP

**Q.** What about the “IgG / IgM antibody response against PEG-lipid (PEG-cDMA)” value [1] of the same compound?
**A.** almost no detectable antibody responses against the PEG-lipid
